Assays:
[1] = test system: dorsum skin of hairless mouse; assay: Test (A): skin permeability and ascorbic acid activity, H-type transverse diffusion cell; format: in vitro ADME; design: key: When an ascorbic acid transmitted through the skin was identified, the evaluation was “+”; when an ascorbic acid was not detected, the evaluation was “−”; When a peak on the order of a trace was confirmed, the evaluation was “+”; conditions: abraded hairless mouse skin, 37° C., 30 to 120 minutes
Method: The dorsum skin with corium of a 4- or 5-week-old hairless mouse was abraded and the skin abraded from the back of the hairless mouse was fixed in an H-type transverse diffusion cell. Then, 2 ml of DALBECCO PBS(−) was charged into the receiver-side cell and 2 ml of a specimen was charged into the donor-side cell. After incubation at 37° C. for from 30 to 120 minutes, 200 μl was sampled from the […] and 200 μl of DALBECCO PBS(−) was replenished. An ascorbic acid amount of the solution sampled was analyzed by the HPLC method described later in the Examples. When an ascorbic acid transmitted through the skin was detected and identified, the evaluation was “+” and when an ascorbic acid was not detected and identified, the evaluation was “−”. When a peak on the order of a trace was confirmed, the evaluation was “±”.
The dorsum skin with corium of a 4- or 5-week-old hairless mouse was abraded and the skin abraded from the back of the hairless mouse was fixed in an H-type transverse diffusion cell. Then, 2 ml of DALBECCO PBS(−) was charged into the receiver-side cell and 2 ml of a specimen was charged into the donor-side cell (in the case of an oil-soluble material, it was emulsion-dispersed in an ordinary manner by adding 2% of a surfactant Tween 80 (trademark)). After incubation at 37° C. for from 30 to 120 minutes, 200 μl was sampled from the […] and 200 μl of DALBECCO PBS (−) was replenished. An ascorbic acid amount of the solution sampled was analyzed by the HPLC method in the Examples. When an ascorbic acid transmitted through the skin was identified, the evaluation was “+” and when an ascorbic acid was not detected, the evaluation was “−” When a peak on the order of a trace was confirmed, the evaluation was […].

[2] = Test (B): durability (activity duration) on storage; format: physicochemical; conditions: 0.5% in water (oil-soluble: emulsion with 2% Tween 80), stored at 40° C. for one month
Method: An ascorbic acid derivative was dissolved in water to have a concentration of 0.5% (in the case of an oil-soluble SF-621 US material, it was emulsion-dispersed in an ordinary manner by adding 2% of a surfactant Tween 80 (trademark)) and stored at 40° C. for one month. Then the residual amount of the derivative was measured by the HPLC method described later in the Examples. When the residual ratio was 90% or more, the evaluation was “+” and when it was less than 90%, the evaluation was “−”.
An ascorbic acid derivative was dissolved in water to have a concentration of 0.5% (in the case of an oil-soluble material, it was emulsion-dispersed in an ordinary manner by adding 2% of a surfactant Tween 80 (trademark)) and stored at 40° C. for one month. Then the residual amount of the derivative was measured by the HPLC method. When the residual ratio was 90% or more, the evaluation was “+” and when it was less than 90%, the evaluation was “−”.

| Molecule | Test (A): skin permeability and ascorbic acid activity (ascorbic acid transmitted through the skin, by HPLC) [1] | Test (B): durability (residual ratio of the derivative by HPLC) [2] |
| --- | --- | --- |
| 2-Palmitoyloxy-L-ascorbic acid-2-phosphate | + |  |
| O=C1O[C@H]([C@@H](O)CO)C(O)=C1OS(=O)(=O)[O-].[Na+] [Sodium L-ascorbic acid-2-sulfate, reference compound] | − | + (When the residual ratio was 90% or more, the evaluation was “+”) |
| Cc1c(C)c2c(c(C)c1OP(=O)(O)OC1=C(O)[C@@H]([C@@H](O)CO)OC1=O)CC[C@@](C)(CCC[C@H](C)CCC[C@H](C)CCCC(C)C)O2 [Ascorbic acid tocopherolphosphate diester, reference compound] | − | + (When the residual ratio was 90% or more, the evaluation was “+”) |
| O=C1O[C@H]([C@@H](O)CO)C(O)=C1OP(=O)([O-])[O-].[Mg+2] [Magnesium L-ascorbic acid-2-phosphate] |  | + (When the residual ratio was 90% or more, the evaluation was “+”) |
| O=C1O[C@H]([C@@H](O)CO)C(O)=C1OP(=O)([O-])[O-].[Na+].[Na+] [Sodium L-ascorbic acid-2-phosphate] | + | + (When the residual ratio was 90% or more, the evaluation was “+”) |
| O=C1O[C@H]([C@@H](O)CO)C(O)=C1O[C@H]1O[C@H](CO)[C@@H](O)[C@H](O)[C@H]1O [L-Ascorbic acid-2-glucoside] | + | + (When the residual ratio was 90% or more, the evaluation was “+”) |
| O=C1O[C@H]([C@@H](O)CO)C(O)=C1OP(=O)([O-])[O-].[K+].[K+] [Potassium L-ascorbic acid-2-phosphate] | + | + (When the residual ratio was 90% or more, the evaluation was “+”) |

— patent publication US6437002B1, “Agent for preventing and treating skin diseases” (Showa Denko K.K., priority 1998, dated 2002)
